Experimental data taken from patent US6821967B2, “Substituted piperazine derivatives, the preparation thereof and their use as medicaments” (Boehringer Ingelheim Pharma KG, priority 1999, dated 2004).

| SMILES | melting point |
| --- | --- |
| O=C(NCC(F)(F)F)C1(CCCCN2CCN(c3ccc4ccccc4n3)CC2)c2ccccc2-c2ccccc21 [Example 3, 9-[4-(4-(quinolin-2-yl)-piperazin-1-yl)-butyl]-9H-fluorene-9-carboxylic acid-(2,2,2-trifluoro-ethyl)-amide] | 56 to 57 °C |
| CCn1c(N2CCN(CCCCC3(C(=O)NCC(F)(F)F)c4ccccc4-c4ccccc43)CC2)nc2ccccc21 [Example 11, 9-{4-[4-(1-ethyl-1H-benzimidazol-2-yl)-piperazin-1-yl]-butyl}-9H-fluorene-9-carboxylic acid-(2,2,2-trifluoro-ethyl)-amide] | 55 °C |
| O=C(NCC(F)(F)F)C1(CCCCN2CCN(c3nc4ccccc4n3Cc3ccccc3)CC2)c2ccccc2-c2ccccc21 [Example 13, 9-{4-[4-(1-benzyl-1H-benzimidazol-2-yl)-piperazin-1-yl]-butyl}-9H-fluorene-9-carboxylic acid-(2,2,2-trifluoro-ethyl)-amide] | 60 °C |
| Cn1c(N2CCN(CCCCC3(C(=O)NCC(F)(F)F)c4ccccc4-c4ccccc43)CC2)nc2cccnc21 [Example 15, 9-{4-[4-(3-methyl-3H-imidazo[4,5]pyridin-2-yl)-piperazin-1-yl]-butyl}-9H-fluorene-9-carboxylic acid-(2,2,2-trifluoro-ethyl)-amide] | 60 °C |
| Cn1c(N2CCN(CCCCC3(C(=O)NCC(F)(F)F)c4ccccc4-c4ccccc43)CC2)nc2ccc(F)cc21 [Example 17, 9-{4-[4-(6-fluoro-1-methyl-1H-benzimidazol-2-yl)-piperazin-1-yl]-butyl}-9H-fluorene-9-carboxylic acid-(2,2,2-trifluoro-ethyl)-amide] | 54 °C |
| Cn1c(N2CCN(CCCCC3(C(=O)NCC(F)(F)F)c4ccccc4-c4ccccc43)CC2)nc2cc(Cl)ccc21 [Example 19, 9-{4-[4-(5-chloro-1-methyl-1H-benzimidazol-2-yl)-piperazin-1-yl]-butyl}-9H-fluorene-9-carboxylic acid-(2,2,2-trifluoro-ethyl)-amide] | 155 °C |
| COc1cccc2c1nc(N1CCN(CCCCC3(C(=O)NCC(F)(F)F)c4ccccc4-c4ccccc43)CC1)n2C [Example 20, 9-{4-[4-(4-methoxy-1-methyl-1H-benzimidazol-2-yl)-piperazin-1-yl]-butyl}-9H-fluorene-9-carboxylic acid-(2,2,2-trifluoro-ethyl)-amide] | 146 °C |
| O=C(NCC(F)(F)F)C1(CCCCN2CCN(c3cnc4c(Cl)cccc4n3)CC2)c2ccccc2-c2ccccc21 [Example 23, 9-{4-[4-(5-chloro-quinoxalin-2-yl)-piperazin-1-yl]-butyl}-9H-fluorene-9-carboxylic acid-(2,2,2-trifluoro-ethyl)-amide] | 74 °C |
| O=C(NCC(F)(F)F)C1(CCCCN2CCN(c3nc4ccc(Cl)cc4s3)CC2)c2ccccc2-c2ccccc21 [Example 24, 9-{4-[4-(6-chloro-benzothiazol-2-yl)-piperazin-1-yl]-butyl}-9H-fluorene-9-carboxylic acid-(2,2,2-trifluoro-ethyl)-amide] | 187 °C |
| O=C(NCC(F)(F)F)C1(CCCCN2CCN(c3ccc4c(Cl)cccc4n3)CC2)c2ccccc2-c2ccccc21 [Example 27, 9-{4-[4-(5-chloro-quinolin-2-yl)-piperazin-1-yl]-butyl}-9H-fluorene-9-carboxylic acid-(2,2,2-trifluoro-ethyl)-amide] | 142 to 143 °C |
| O=C(NCC(F)(F)F)C1(CCCCN2CCN(c3ccc4cccc(Cl)c4n3)CC2)c2ccccc2-c2ccccc21 [Example 29, 9-{4-[4-(8-chloro-quinolin-2-yl)-piperazin-1-yl]-butyl}-9H-fluorene-9-carboxylic acid-(2,2,2-trifluoro-ethyl)-amide] | 121 °C |
| COc1cccc2ccc(N3CCN(CCCCC4(C(=O)NCC(F)(F)F)c5ccccc5-c5ccccc54)CC3)nc12 [Example 30, 9-{4-[4-(8-methoxy-quinolin-2-yl)-piperazin-1-yl]-butyl}-9H-fluorene-9-carboxylic acid-(2,2,2-trifluoro-ethyl)-amide] | 74 °C |
| O=C(NCC(F)(F)F)C1(CCCCN2CCN(c3ccc4cccc(O)c4n3)CC2)c2ccccc2-c2ccccc21 [Example 31, 9-{4-[4-(8-hydroxy-quinolin-2-yl)-piperazin-1-yl]-butyl}-9H-fluorene-9-carboxylic acid-(2,2,2-trifluoro-ethyl)-amide] | 159 °C |
| O=C(NCC(F)(F)F)C1(CCCCN2CCN(c3ccc4cccc(Br)c4n3)CC2)c2ccccc2-c2ccccc21 [Example 32, 9-{4-[4-(8-bromo-quinolin-2-yl)-piperazin-1-yl]-butyl}-9H-fluorene-9-carboxylic acid-(2,2,2-trifluoro-ethyl)-amide] | 66 °C |
| C[C@@H]1CN(c2ccc3ccccc3n2)CCN1CCCCC1(C(=O)NCC(F)(F)F)c2ccccc2-c2ccccc21 [Example 39, 9-{4-[(R)-2-methyl-4-quinolin-2-yl-piperazin-1-yl]-butyl}-9H-fluorene-9-carboxylic acid-(2,2,2-trifluoro-ethyl)-amide] | 102 °C |
| C[C@@H]1CN(c2ccc3ccccc3n2)C[C@H](C)N1CCCCC1(C(=O)NCC(F)(F)F)c2ccccc2-c2ccccc21 [Example 42, 9-[4-(cis-2,6-dimethyl-4-quinolin-2-yl-piperazin-1-yl)-butyl]-9H-fluorene-9-carboxylic acid-(2,2,2-trifluoro-ethyl)-amide] | 169 °C |
| C[C@@H]1CN(c2nc3ccccc3s2)C[C@H](C)N1CCCCC1(C(=O)NCC(F)(F)F)c2ccccc2-c2ccccc21 [Example 45, 9-[4-(4-benzothiazole-2-yl-cis-2,6-dimethyl-piperazin-1-yl)-butyl]-9H-fluorene-9-carboxylic acid-(2,2,2-trifluoro-ethyl)-amide] | 163 to 165 °C |
| O=C(NCc1ccc(F)cc1)C1(CCCCN2CCN(c3ccc4ccccc4n3)CC2)c2ccccc2-c2ccccc21 [Example 53, 9-[4-(4-quinolin-2-yl-piperazin-1-yl)-butyl]-9H-fluorene-9-carboxylic acid-4-fluoro-benzylamide] | 58 °C |

The remaining lines, values ahead:

| melting point | SMILES |
| --- | --- |
| 128 °C | O=C(NCC(F)(F)F)C1(CCCCN2CCN(c3nc4ccccc4o3)CC2)c2ccccc2-c2ccccc21 [Example 2, 9-[4-(4-(benzoxazol-2-yl)-piperazin-1-yl)-butyl]-9H-fluorene-9-carboxylic acid-(2,2,2-trifluoro-ethyl)-amide] |
| 59 °C | Cn1c(N2CCN(CCCCC3(C(=O)NCC(F)(F)F)c4ccccc4-c4ccccc43)CC2)nc2cc(F)ccc21 [Example 18, 9-{4-[4-(5-fluoro-1-methyl-1H-benzimidazol-2-yl)-piperazin-1-yl]-butyl}-9H-fluorene-9-carboxylic acid-(2,2,2-trifluoro-ethyl)-amide] |
| 142 to 145 °C | O=C(NCC(F)(F)F)C1(CCCCN2CCN(c3cnc4ccccc4n3)CC2)c2ccccc2-c2ccccc21 [Example 22, 9-[4-(4-quinoxalin-2-yl-piperazin-1-yl)-butyl]-9H-fluorene-9-carboxylic acid-(2,2,2-trifluoro-ethyl)-amide] |
| 105 °C | O=C(NCC(F)(F)F)C1(CCCCN2CCN(c3cc(-c4ccccc4)c4ccccc4n3)CC2)c2ccccc2-c2ccccc21 [Example 25, 9-{4-[4-(4-phenyl-quinolin-2-yl)-piperazin-1-yl]-butyl}-9H-fluorene-9-carboxylic acid-(2,2,2-trifluoro-ethyl)-amide] |
| 146 to 148 °C | O=C(NCC(F)(F)F)C1(CCCCN2CCN(c3ccc4ccc(Cl)cc4n3)CC2)c2ccccc2-c2ccccc21 [Example 26, 9-{4-[4-(7-chloro-quinolin-2-yl)-piperazin-1-yl]-butyl}-9H-fluorene-9-carboxylic acid-(2,2,2-trifluoro-ethyl)-amide] |
| 151 °C | O=C(NCC(F)(F)F)C1(CCCCN2CCN(c3ccc4cc(Cl)ccc4n3)CC2)c2ccccc2-c2ccccc21 [Example 28, 9-{4-[4-(6-chloro-quinolin-2-yl)-piperazin-1-yl]-butyl}-9H-fluorene-9-carboxylic acid-(2,2,2-trifluoro-ethyl)-amide] |
| 67 °C | COc1cccc2ccc(N3CCN(CCCCC4(C(=O)NCC(F)(F)F)c5ccccc5-c5ccccc54)CC3)nc12 [Example 36, 9-{4-[4-(8-methoxy-quinolin-2-yl)-piperazin-1-yl]-butyl}-9H-fluorene-9-carboxylic acid-(2,2,2-trifluoro-ethyl)-amide] |
| 102 °C | C[C@H]1CN(c2ccc3ccccc3n2)CCN1CCCCC1(C(=O)NCC(F)(F)F)c2ccccc2-c2ccccc21 [Example 38, 9-{4-[(S)-2-methyl-4-quinolin-2-yl-piperazin-1-yl]-butyl}-9H-fluorene-9-carboxylic acid-(2,2,2-trifluoro-ethyl)-amide] |
| 50 °C | CC1CN(CCCCC2(C(=O)NCC(F)(F)F)c3ccccc3-c3ccccc32)CCN1c1ccc2ccccc2n1 (stereo not drawn) [Example 40, 9-{4-[3-methyl-4-quinolin-2-yl-piperazin-1-yl]-butyl}-9H-fluorene-9-carboxylic acid-(2,2,2-trifluoro-ethyl)-amide] |
| 77 °C | C[C@@H]1CN(c2nc3ccccc3n2C)C[C@H](C)N1CCCCC1(C(=O)NCC(F)(F)F)c2ccccc2-c2ccccc21 [Example 43, 9-{4-[cis-2,6-dimethyl-4-(1-methyl-1H-benzimidazol-2-yl)-piperazin-1-yl]-butyl}-9H-fluorene-9-carboxylic acid-(2,2,2-trifluoro-ethyl)-amide] |
| 163 to 165 °C | C[C@@H]1CN(c2nc3ccccc3o2)C[C@H](C)N1CCCCC1(C(=O)NCC(F)(F)F)c2ccccc2-c2ccccc21 [Example 46, 9-[4-(4-benzoxazol-2-yl-cis-2,6-dimethyl-piperazin-1-yl)-butyl]-9H-fluorene-9-carboxylic acid-(2,2,2-trifluoro-ethyl)-amide] |
| 174 °C | C[C@@H]1CN(c2ncc3ccccc3n2)C[C@H](C)N1CCCCC1(C(=O)NCC(F)(F)F)c2ccccc2-c2ccccc21 [Example 47, 9-[4-(cis-2,6-dimethyl-4-quinazolin-2-yl-piperazin-1-yl)-butyl]-9H-fluorene-9-carboxylic acid-(2,2,2-trifluoro-ethyl)-amide] |
